# Laboratory results published in patent publication EP0334119A1, “Compounds for inhibiting the biosynthesis of lipoxygenase-derived metabolites of arachidonic acid” (BOEHRINGER INGELHEIM PHARMACEUTICALS INC., priority 1988, dated 1989).
# Where two headings read alike, the source gives them in different places.
# Experiments:
# 5-lipoxygenase [1] = test: Inhibition of antigen-induced, late phase inflammatory cell infiltration in guinea pigs; assay type: in vivo; details: 60 minutes before antigen challenge, lung lavage four hours after challenge
# Description: Inhibition of Antigen-Induced, Late Phase Inflammatory Cell Infiltration in Guinea Pigs
# This model is used to measure the ability of a drug to inhibit 5-lipoxygenase in vivo. In addition to SRS-A, a chemotactic substance LTB₄ is also released by cells in the sensitized guinea pig lung upon stimulation by antigen. As a result there is a measurable influx of cells into the lung. Therefore, an inhibitor of 5-lipoxygenase could reduce the formation of LTB₄ and thereby reduce the cell influx into the lung.
# Male outbred Hartley strain albino guinea pigs (250-300 grams) were sensitized to ovalbumin as in the procedure for inhibition of antigen-induced, SRS-A mediated bronchioconstriction in conscious guinea pigs.
# Sensitized guinea pigs were fasted and pretreated with pyrilamine and indomethacin as in bronchioconstriction testing procedure. Test compounds, suspended in 1% acacia, were administered 60 minutes before antigen challenge. […] Whole lung lavage was performed with three 5 mL aliquots of normal saline buffered with sodium bicarbonate.
# Total cell counts were performed on a Coulter Counter, and differential cell counts were performed. Compounds were evaluated for their ability to alter the antigen-induced total cell influx and, more specifically, neutrophil (PMN) influx.
# 5-lipoxygenase [2] = test: Inhibition of antigen-induced, SRS-A mediated bronchioconstriction in conscious guinea pigs; assay type: in vivo; details: i.p. in 5% Tween 80 suspension, 30mg/kg, 60 minutes before antigen challenge; % inhibition of the decrease in Cdyn
# Description: Inhibition of Antigen-Induced, SRS-A Mediated Bronchioconstriction in Conscious Guinea Pigs
# This model is used to measure the ability of a drug to inhibit 5-lipoxygenase in vivo. SRS-A (slow reacting substance of anaphylaxis - also referred to as leukotrienes C₄, D₄ and E₄) is released by cells in the sensitized guinea pig upon stimulation by antigen, resulting in bronchioconstriction and change in pulmonary function. The leukotrienes are biosynthesized from arachidonic acid by the enzyme 5-lipoxygenase. Therefore, an inhibitor of 5-lipoxygenase could reduce the production of SRS-A and attenuate the bronchioconstriction.
# Male outbred Hartley strain albino guinea pigs (250-300 grams) were sensitized by i.p. injection of ovalbumin (3mg/kg) followed by an i.p. injection of Bordetella pertussis (about 5x10⁹ killed organisms) and studied 14 days later.
# Sensitized guinea pigs (fasted for 18 hours) were anesthesized and a catheter-tip pressure transducer was inserted into the pleural space of each animal. The animals are pretreated (i.p.) with pyrilamine (10mg/kg) and indomethacin (10mg/kg) to antagonize the effects of histamine and inhibit cyclooxygenase respectively. Cyclooxygenase products and histamine are released endogenously along with SRS-A, upon antigen challenge. Test compound is also administered i.p., 60 minutes before antigen challenge.
# The guinea pigs were placed in a "head out" plethysmograph and allowed to recover from anesthesia. Airflow into the respiratory system, pleural pressure and airflow signals were measured, and tidal volume, dynamic pulmonary compliance (Cdyn) and breathing frequency were calculated according to a published technique (E.G. Damen et al., Toxicol. Appl. Pharmacol., 1982, 64, 465). After baseline values for pulmonary function were obtained, the animals were challenged by aerosolized ovalbumin. The overall changes in pulmonary function parameters were determined by calculating the mean changes from baseline during the period 5 to 15 minutes following antigen challenge.
# Drug efficacy was determined by comparing the mean of the percent decrease in Cdyn from baseline in drug treated animals (N=4-6) to control animals (N=10-12).
# 5-lipoxygenase [3] = target: T1, 5-lipoxygenase (Homo sapiens, UniProt P09917); test: Inhibition of 5-lipoxygenase (5-HETE biosynthesis) in human polymorphonuclear leukocytes; assay type: cell-based; details: human PMN's, 5-HETE band vs control; test concentration 1 microM; read-out: Inhibition of 5-LO % at 1 M
# T1 construct: Human PMN's (5 x 10⁶ cells/0.5 mL) in pH 7.2 phosphate buffer; endogenous in cells; host or cells: human polymorphonuclear leukocytes (PMN)
# T1 sequence (P09917 1-674): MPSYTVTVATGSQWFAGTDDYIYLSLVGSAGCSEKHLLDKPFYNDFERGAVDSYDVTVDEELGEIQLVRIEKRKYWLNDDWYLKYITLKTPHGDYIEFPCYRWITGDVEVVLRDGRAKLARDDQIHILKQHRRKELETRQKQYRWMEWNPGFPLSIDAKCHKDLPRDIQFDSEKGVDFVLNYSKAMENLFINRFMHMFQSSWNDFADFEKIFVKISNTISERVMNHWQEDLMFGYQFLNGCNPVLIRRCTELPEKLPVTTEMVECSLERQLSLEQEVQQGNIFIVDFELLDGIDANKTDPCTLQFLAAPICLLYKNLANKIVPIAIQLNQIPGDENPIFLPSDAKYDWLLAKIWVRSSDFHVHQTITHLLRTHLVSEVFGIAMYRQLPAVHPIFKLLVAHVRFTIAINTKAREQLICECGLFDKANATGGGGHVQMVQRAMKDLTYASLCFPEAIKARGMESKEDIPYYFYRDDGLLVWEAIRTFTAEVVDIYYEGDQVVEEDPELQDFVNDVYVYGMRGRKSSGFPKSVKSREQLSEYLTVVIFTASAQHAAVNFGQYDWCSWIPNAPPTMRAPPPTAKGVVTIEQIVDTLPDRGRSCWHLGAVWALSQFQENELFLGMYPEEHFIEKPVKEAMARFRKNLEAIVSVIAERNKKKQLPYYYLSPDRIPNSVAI
# Protocol: Inhibition of 5-Lipoxygenase in Human Polymorphonuclear Leukocytes (PMN's)
# The inhibition of 5-lipoxygenase is measured by determining whether and to what extent test compounds inhibit the amount of 5-HETE biosynthesized by human PMN's. 5-HETE biosynthesis serves as a marker for arachidonic acid metabolism by 5-lipoxygenase.
# Human PMN's (5 x 10⁶ cells/0.5 mL) in pH 7.2 phosphate buffer containing Ca²⁺ (0.6 mM) and Mg²⁺ (1.0 mM) were incubated with test compound for 15 minutes at 37°C with shaking. Calcium ionophore A23187 (0.25 mM, 0.01 mL) and [¹⁴C] arachidonic acid (0.10 microCi in 0.025 mL 0.01N NaOH) were added, and the mixture incubated another 2.5 minutes. The reaction was terminated by the addition of 0.025 mL of 1.0 N HCl. The mixture was then extracted with ethyl acetate-methylene chloride (2:3) supplemented with 12 microgram/mL cold arachidonic acid to reduce degradation of the metabolites. After concentrating the organic phase, the number of microlitres containing 5 x 10⁴ cpm was determined and that volume applied to a silica gel plate. The plate was developed in methylene-chloride-methanol-acetic acid-water (90:8:1:0.8), air dried, and counted on a Berthold linear TLC analyzer. The integrated area of the 5-HETE band was determined and compared with the control (no drug).
# In cases where the IC₅₀ was determined, the result is shown in microM.
# [4] = system: A23187-Induced LTB₄ Generation; test: Ex vivo inhibition of A23187-induced LTB4 generation in squirrel monkey blood; parameters: species or system Squirrel Monkeys; details: Primates, 1 h, 60 min after dosing, vehicle per footnotes 2-4
# Protocol: Ex Vivo Inhibition of A23187-Induced LTB₄ Generation in Squirrel Monkeys.
# Incubation of squirrel monkey whole blood with calcium ionophore A23187 stimulates the production of LTB₄. This LTB₄ production can be inhibited by a lipoxygenase inhibitor in vitro by incubating the blood with the inhibitor prior to A23187 challenge. By dosing squirrel monkeys with a lipoxygenase inhibitor prior to withdrawal of a blood sample, one can determine the ability of the lipoxygenase inhibitor to be absorbed into the bloodstream by measuring the inhibition of A23187 induced LTB₄ production ex vivo.
# Squirrel monkeys (400-650g) were fasted for 18 hours, anesthetized and dosed either orally or intraperitoneally with test compound. After the desired time period, blood was withdrawn from the femoral vein. The blood (0.5 mL) was heparinized, preincubated at 37°C for 5 minutes and stimulated with A23187 in DMSO to give a final concentration of 30 microM. The reaction was terminated with EGTA (final concentration 10 microM), and the blood centrifuged. Levels of LTB₄ in the plasma were then determined by radioimmunoassay.
# The results shown in Table 4 illustrate the ability of a prodrug of type 2a or 2b to be absorbed after ip or po dosing compared to the parent compound 1a.
structure (smiles),measurement,setting,value
"Cc1cc(C=Cc2cccs2)cc(C)c1O [Compound 1a, 2,6-Dimethyl-4-[2-(2-thienyl)ethenyl]phenol]",% Inh. PMN,5-lipoxygenase [1]; 30 mg/kg ip,95%
same,% Inh. Total Cells,5-lipoxygenase [1]; 30 mg/kg ip,78%
same,% Inh. PMN,5-lipoxygenase [1]; 30 mg/kg po,14%
same,% Inh. Total Cells,5-lipoxygenase [1]; 30 mg/kg po,51%
same,% Inhibition of Bronchioconstriction,5-lipoxygenase [2],75%
same,inhibition at 1 µM,5-lipoxygenase [3],91%
same,inhibition at 30 mg/kg,"[4]; 30 mg/kg ip, read-out: Percent Inh. Monkey 2",12%
same,inhibition at 30 mg/kg,"[4]; 30 mg/kg ip, read-out: Percent Inh. Monkey 3",4%
same,inhibition at 30 mg/kg,"[4]; 30 mg/kg ip, read-out: Percent Inh. Monkey #1",47%
same,inhibition at 30 mg/kg,"[4]; 30 mg/kg po, read-out: Percent Inh. Monkey 2",0%
same,inhibition at 30 mg/kg,"[4]; 30 mg/kg po, read-out: Percent Inh. Monkey 3",0%
same,inhibition at 30 mg/kg,"[4]; 30 mg/kg po, read-out: Percent Inh. Monkey #1",18%
CC(C)c1cc(C=Cc2cccnc2)cc(C(C)C)c1O [Compound 1ab],% Inhibition of Bronchioconstriction,5-lipoxygenase [2],34%
same,inhibition at 1 µM,5-lipoxygenase [3],73%
"COc1cc(C=Cc2cccs2)cc(C)c1O [Compound 1d, 2-Methoxy-6-methyl-4-[2-(2-thienyl)ethenyl]phenol]",% Inhibition of Bronchioconstriction,5-lipoxygenase [2],41%
same,inhibition at 1 µM,5-lipoxygenase [3],65%
CCc1cc(C=Cc2cccs2)cc(OC)c1O [Compound 1e],% Inhibition of Bronchioconstriction,5-lipoxygenase [2],51%
same,inhibition at 1 µM,5-lipoxygenase [3],85%
CCCc1cc(C=Cc2cccs2)cc(OC)c1O [Compound 1f],% Inh. PMN,5-lipoxygenase [1]; 30 mg/kg ip,54%
same,% Inh. Total Cells,5-lipoxygenase [1]; 30 mg/kg ip,77%
same,% Inhibition of Bronchioconstriction,5-lipoxygenase [2],57%
same,inhibition at 1 µM,5-lipoxygenase [3],76%
Cc1cc(C=Cc2ccsc2)cc(C)c1O [Compound 1o],% Inhibition of Bronchioconstriction,5-lipoxygenase [2],26%
same,inhibition at 1 µM,5-lipoxygenase [3],84%
Cc1cc(C=Cc2cccnc2)cc(C)c1O [Compound 1x],% Inhibition of Bronchioconstriction,5-lipoxygenase [2],39%
same,inhibition at 1 µM,5-lipoxygenase [3],62%
